Among the data in the PolyMetriX glass transition set are glass transition temperature values, retold here.

With `*C(=O)Nc1ccc(Oc2ccc(NC(=O)c3ccc4c(c3)C(=O)N(c3ccc(-c5sc(-c6ccc(N7C(=O)c8ccc(*)cc8C7=O)cc6)c(-c6ccccc6)c5-c5ccccc5)cc3)C4=O)cc2)cc1` (repeat unit), the glass transition temperature is 320.00 °C.

`*C(=O)Nc1ccc(Oc2ccc(NC(=O)c3ccc4c(c3)C(=O)N(c3ccc(S(=O)(=O)c5ccc(N6C(=O)c7ccc(*)cc7C6=O)cc5)cc3)C4=O)cc2)cc1` (repeat unit): the glass transition temperature stood at 281.00 °C.

Regarding `*C(=O)Nc1ccc(Oc2ccc(Oc3ccc(N4C(=O)c5ccc(*)cc5C4=O)cc3)cc2)cc1` (repeat unit), the glass transition temperature came out at 250.00 °C.

Molecule `*C(=O)Nc1ccc(Oc2ccc(Oc3ccc(NC(=O)c4ccc5c(c4)C(=O)N(c4ccc(-c6sc(-c7ccc(N8C(=O)c9ccc(*)cc9C8=O)cc7)c(-c7ccccc7)c6-c6ccccc6)cc4)C5=O)cc3)cc2)cc1` (repeat unit) yielded a glass transition temperature of 303.00 °C.

With `*C(=O)Nc1ccc(Oc2ccc(Oc3ccc(NC(=O)c4ccc5c(c4)C(=O)N(c4ccc(Oc6ccc(C7(c8ccc(Oc9ccc(N%10C(=O)c%11ccc(*)cc%11C%10=O)cc9)cc8)CC8CC7C7CCCC87)cc6)cc4)C5=O)cc3)cc2)cc1` (repeat unit), the glass transition temperature turned out to be 257.00 °C.

Turning to `*C(=O)Nc1ccc(Oc2ccc(Oc3ccc(NC(=O)c4ccc5c(c4)C(=O)N(c4ccc(Oc6ccc(N7C(=O)c8ccc(*)cc8C7=O)cc6)cc4)C5=O)cc3)cc2)cc1` (repeat unit), the glass transition temperature is 260.00 °C.

As to `*C(=O)Nc1ccc(Oc2ccc(Oc3ccc(NC(=O)c4ccc5c(c4)C(=O)N(c4ccc(Oc6cccc7c(Oc8ccc(N9C(=O)c%10ccc(*)cc%10C9=O)cc8)cccc67)cc4)C5=O)cc3)cc2)cc1` (repeat unit), the glass transition temperature worked out at 285.00 °C.

`*C(=O)Nc1ccc(Oc2ccc(S(=O)(=O)c3ccc(Oc4ccc(NC(=O)c5ccc6c(c5)C(=O)N(c5ccc(Oc7ccc8ccc(Oc9ccc(N%10C(=O)c%11ccc(*)cc%11C%10=O)cc9)cc8c7)cc5)C6=O)cc4)cc3)cc2)cc1` (repeat unit) displayed a glass transition temperature of 274.00 °C.

The molecule `*C(=O)Nc1ccc(Oc2ccc(S(=O)(=O)c3ccc(Oc4ccc(NC(=O)c5ccc6c(c5)C(=O)N(c5ccc(Oc7cccc8c(Oc9ccc(N%10C(=O)c%11ccc(*)cc%11C%10=O)cc9)cccc78)cc5)C6=O)cc4)cc3)cc2)cc1` (repeat unit) had a glass transition temperature of 260.00 °C.

The molecule `*C(=O)c1ccc2c(c1)C(=O)N(c1ccc(Oc3ccc(NC(=O)c4cccc(C(=O)Nc5ccc(Oc6ccc(N7C(=O)c8ccc(*)cc8C7=O)cc6)cc5)c4)cc3)cc1)C2=O` (repeat unit) came in with a glass transition temperature of 232.00 °C.

Molecule `*Oc1ccc(NC(=C(C#N)C#N)c2ccc(C(Nc3ccc(*)cc3)=C(C#N)C#N)cc2)cc1` (repeat unit) registered a glass transition temperature of 274.00 °C.

`*Oc1ccc(NC(=O)c2cc(C(=O)Nc3ccc(*)cc3)cc(C(F)(F)C(F)(F)C(F)(F)C(F)(F)F)c2)cc1` (repeat unit) returned a glass transition temperature of 257.00 °C.

Turning to `*Oc1ccc(NC(=O)c2cc(NC(=O)C34CC5CC(CC(C5)C3)C4)cc(C(=O)Nc3ccc(*)cc3)c2)cc1` (repeat unit), the glass transition temperature was determined as 335.00 °C.

For the molecule `*Oc1ccc(NC(=O)c2ccc(C(=O)Nc3ccc(*)cc3)cc2)cc1` (repeat unit), the glass transition temperature is 240.50 °C.

Molecule `*Oc1ccc(NC(=O)c2ccc(P(=O)(c3ccccc3)c3ccc(C(=O)Nc4ccc(Oc5ccc(P(=O)(c6ccccc6)c6ccc(*)cc6)cc5)cc4)cc3)cc2)cc1` (repeat unit) registered a glass transition temperature of 225.00 °C.

The molecule `*Oc1ccc(NC(=O)c2cccc(C(=O)Nc3ccc(*)cc3)c2)cc1` (repeat unit) had a glass transition temperature of 264.00 °C.

In the case of `*Oc1ccc(Oc2ccc(NC(=C(C#N)C#N)c3ccc(C(Nc4ccc(*)cc4)=C(C#N)C#N)cc3)cc2)cc1` (repeat unit), the glass transition temperature stood at 255.00 °C.

For the molecule `*c1ccc(-c2ccc(-n3c(-c4ccc(Oc5ccc(C(=O)c6ccc(C(=O)c7ccc(Oc8ccc(-c9nc%10ccccc%10n9*)cc8)cc7)cc6)cc5)cc4)nc4ccccc43)cc2)cc1` (repeat unit), the glass transition temperature was found to be 259.00 °C.

Take `*c1ccc(C(=O)Nc2ccc(Oc3ccc(NC(=O)c4ccc(Oc5ccc(-c6nn(*)c(=O)c7ccccc67)c6ccccc56)cc4)cc3)cc2)cc1` (repeat unit): the glass transition temperature stood at 317.50 °C.

On to `*c1ccc(C(=O)Nc2ccc(Oc3ccc(Oc4ccc(NC(=O)c5ccc(Oc6ccc(-c7nn(*)c(=O)c8ccccc78)c7ccccc67)cc5)cc4)cc3)cc2)cc1` (repeat unit), for which the glass transition temperature was determined as 289.50 °C.

The molecule `*c1ccc(C(=O)Nc2ccc(Oc3ccc(Oc4ccc(NC(=O)c5ccc(Oc6ccc(-c7nn(*)c(=O)c8ccccc78)c7ccccc67)cc5)cc4C(F)(F)F)cc3)c(C(F)(F)F)c2)cc1` (repeat unit) registered a glass transition temperature of 281.50 °C.

On to `*c1ccc(C(=O)Nc2ccc(Oc3ccc(S(=O)(=O)c4ccc(Oc5ccc(NC(=O)c6ccc(N7C(=O)c8ccc(-c9cccc%10c9C(=O)N(*)C%10=O)cc8C7=O)cc6)cc5)cc4)cc3)cc2)cc1` (repeat unit), for which the glass transition temperature was determined as 287.00 °C.

Take `*c1ccc(Oc2ccc(C(=O)c3ccc(C(=O)c4ccc(Oc5ccc(N6C(=O)c7ccc(-c8ccc9c(c8)C(=O)N(*)C9=O)cc7C6=O)cc5)cc4)cc3)cc2)cc1` (repeat unit): the glass transition temperature came out at 245.00 °C.

The molecule `*c1ccc(Oc2ccc(NC(=O)c3ccc(Oc4ccc5c(c4)C(=O)N(*)C5=O)cc3)cc2)cc1` (repeat unit) displayed a glass transition temperature of 262.00 °C.

`*c1ccc(Oc2ccc(NC(=O)c3ccc(Oc4cccc5c4C(=O)N(*)C5=O)cc3)cc2)cc1` (repeat unit) displayed a glass transition temperature of 253.00 °C.

In turn, `*c1ccc(Oc2ccc(Oc3ccc(NC(=O)c4ccc(Oc5ccc6c(c5)C(=O)N(*)C6=O)cc4)cc3)cc2)cc1` (repeat unit) registered a glass transition temperature of 242.00 °C.

In turn, `*c1ccc(Oc2ccc(Oc3ccc(NC(=O)c4ccc(Oc5cccc6c5C(=O)N(*)C6=O)cc4)cc3)cc2)cc1` (repeat unit) had a glass transition temperature of 244.00 °C.

`*c1ccc(Oc2ccc(Oc3ccc(NC(=O)c4cccc(Oc5ccc6c(c5)C(=O)N(*)C6=O)c4)cc3)cc2)cc1` (repeat unit) had a glass transition temperature of 213.00 °C.

`*c1cccc(C(=O)Nc2ccc(Oc3ccc(NC(=O)c4cccc(N5C(=O)c6ccc(-c7ccc8c(c7)C(=O)N(*)C8=O)cc6C5=O)c4)cc3)cc2)c1` (repeat unit) displayed a glass transition temperature of 253.00 °C.

For `*c1cccc(C(=O)Nc2ccc(Oc3ccc(Oc4ccc(NC(=O)c5cccc(N6C(=O)c7ccc(-c8ccc9c(c8)C(=O)N(*)C9=O)cc7C6=O)c5)cc4)cc3)cc2)c1` (repeat unit), the glass transition temperature came out at 244.00 °C.

In turn, `*c1cccc(C(=O)Nc2ccc(Oc3ccc(Oc4ccc(NC(=O)c5cccc(N6C(=O)c7ccc(-c8cccc9c8C(=O)N(*)C9=O)cc7C6=O)c5)cc4)cc3)cc2)c1` (repeat unit) showed a glass transition temperature of 268.00 °C.

The molecule `*c1cccc(C(=O)Nc2ccc(Oc3ccc(Oc4ccc(Oc5ccc(NC(=O)c6cccc(N7C(=O)c8ccc(-c9ccc%10c(c9)C(=O)N(*)C%10=O)cc8C7=O)c6)cc5)cc4)cc3)cc2)c1` (repeat unit) came in with a glass transition temperature of 244.00 °C.
